Results taken from patent US11123340B2, “Small-molecule UT-A-selective urea transport inhibitors” (The Regents of the University of California, priority 2014, dated 2021).
Values after ≈ are worked out from the molar mass of the structure shown. Like-named read-outs stand apart in the source and are kept apart here.

What was measured:
[1] = In vitro metabolic stability in rat hepatic microsomes; format: in vitro ADME; settings: at 60 min, 5 μM, NADPH
Protocol: As described (see, e.g., Snyder et al. (2011) J Med Chem. 54, 5468-5477), compounds (each 5 μM) were incubated for specified times at 37° C. with rat liver microsomes (1 mg protein/mL; Sigma-Aldrich, St. Louis, Mo.) in potassium phosphate buffer (100 mM) containing 1 mM NADPH. The mixture was then chilled on ice, and 0.5 mL of ice-cold EtOAc was added. Samples were centrifuged for 15 min at 3,000 rpm, the supernatant evaporated to dryness, and the residue was dissolved in 100 μl mobile phase (acetonitrile: water [3:1], containing 0.1% formic acid) for LC/MS. Reverse-phase HPLC separations were carried out using a XTERRA MS C18 column (2.1 mm×100 mm, 3.5 m) equipped with a solvent delivery system (Waters model 2695, Milford, Mass.). The solvent system consisted of a linear gradient from 5 to 95% acetonitrile containing 0.1% formic acid, run over 16 min (0.2 mL/min flow rate).
In vitro metabolic stability was measured by LC/MS after incubation with rat hepatic microsomes and NADPH.

[2] = Solubility; format: physicochemical
Protocol: (§1) Several vehicles and administration routes were tested in order to give predicted therapeutic inhibitor concentrations in blood and urine. […] Because of the alkaline pH of the administered compounds the vehicle control for UTAinh-F11 was 20% dimethylacetamide and 1.2 mg/mL NaHCO3 in saline to give identical pH. […] Urine levels of UTAinh-F11 were >3 μM over 6 h.
Compound toxicity was evaluated by compound incubation for 24 h with MDCK cell cultures followed by Alamar blue assay. […] To assess potential ion channel off-target effects, short-circuit current was measured in MDCK cells in response to cAMP (forskolin) and calcium (ATP) agonists (FIG. 5C, right), which depends on the actions of multiple anion (CFTR, calcium-activated chloride channels) and cation (K^+, Na^+) channels.

[3] = biological target: T1, UT-A1 (Rattus norvegicus, UniProt Q62668); test: Transepithelial urea transport in UT-A1-expressing MDCK cells on porous filters; format: cell-based; settings: 3 μM inhibitor, forskolin 10 μM
T1 construct: expressed in transfected cells; host or cells: MDCK cells
T1 sequence (Q62668 1-929): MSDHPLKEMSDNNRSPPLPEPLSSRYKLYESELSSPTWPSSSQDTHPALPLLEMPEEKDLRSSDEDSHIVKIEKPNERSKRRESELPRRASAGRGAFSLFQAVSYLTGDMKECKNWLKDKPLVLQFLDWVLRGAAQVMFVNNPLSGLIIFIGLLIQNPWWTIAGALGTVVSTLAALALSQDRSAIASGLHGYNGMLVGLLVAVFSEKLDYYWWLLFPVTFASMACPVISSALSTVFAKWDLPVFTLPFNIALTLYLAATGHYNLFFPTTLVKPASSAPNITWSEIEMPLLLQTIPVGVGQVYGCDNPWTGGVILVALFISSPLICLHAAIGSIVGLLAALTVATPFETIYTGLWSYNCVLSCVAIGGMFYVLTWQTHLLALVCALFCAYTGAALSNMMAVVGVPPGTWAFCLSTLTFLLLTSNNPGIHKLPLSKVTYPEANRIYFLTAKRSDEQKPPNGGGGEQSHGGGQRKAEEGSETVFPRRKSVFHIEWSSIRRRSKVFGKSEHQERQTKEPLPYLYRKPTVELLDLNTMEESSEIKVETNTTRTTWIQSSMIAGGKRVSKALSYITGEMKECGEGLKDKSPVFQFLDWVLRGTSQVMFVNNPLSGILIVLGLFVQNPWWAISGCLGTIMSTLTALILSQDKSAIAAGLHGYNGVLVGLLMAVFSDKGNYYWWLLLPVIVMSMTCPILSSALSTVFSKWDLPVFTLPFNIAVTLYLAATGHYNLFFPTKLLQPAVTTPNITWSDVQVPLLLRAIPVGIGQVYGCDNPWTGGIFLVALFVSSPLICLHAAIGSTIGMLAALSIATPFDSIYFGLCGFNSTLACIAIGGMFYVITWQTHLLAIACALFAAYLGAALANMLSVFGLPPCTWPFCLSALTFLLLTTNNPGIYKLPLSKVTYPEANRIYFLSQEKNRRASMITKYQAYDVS
Protocol: UT-A1 expressing MDCK cells were grown on 12-mm diameter collagen-coated Transwell inserts (0.4 μm pore size; Costar, Costar, N.Y.) to form tight monolayers (resistance>500 Ωcm^2), as described (see, e.g., Levin et al. (2007) FASEB J. 21, 551-563). Urea flux in the basolateral-to-apical direction was measured in response to a 15 mM urea gradient in which PBS containing forskolin (10 μM), with or without UT-A1 inhibitor and 0.7 mM phloretin, was added to both the apical-facing (0.2 mL) and basal-facing (2 mL) surfaces. After 30 min the basal-facing solution was replaced by PBS containing test compound+15 mM urea. Apical fluid samples (5 μL) were collected at specified times for enzymatic assay of urea (QUANTICHROME Urea Assay Kit; BioAssay Systems, Hayward, Calif.). To measure inhibitor permeability across MDCK cell layers, compounds (20 μM) were added on the basal-facing surface and fluid samples (20 μL) from the apical-facing surface were collected at different time points and analyzed by LC/MS.
Transepithelial urea transport from the basolateral to the apical solution was measured by enzymatic assay of urea in the apical solution following urea addition to the basal-facing solution.

[4] = Pharmacokinetics in rats; format: in vivo; settings: rat; for half-life: plasma, read-out: plasma elimination t1/2 (converted)
Protocol: UTAinh-E02 or UTAinh-F11 was administered at 20 mg/kg intravenously by tail vein to rats. UTAinh-E02 was formulated as a 5 mg/mL saline solution containing 20% dimethylacetamide and 40% 2-hydroxypropyl γ-cyclodextrin; UTAinh-F11 was formulated as a 5 mg/mL saline solution containing 20% dimethylacetamide and 0.6 mg/mL NaOH. Blood samples were collected from the tail vein into K3EDTA mini collecting tubes (Greiner, Kremsmunster, Austria) at specified time points. Plasma samples were separated by centrifugation and kept frozen at −20 OC until analysis. Urine samples were also collected. Calibration standards were prepared in urine and plasma from control (non-treated) rats to which known amounts of UTAinh-E02 or UTAinh-F11 were added. The mixture was centrifuged for 20 min at 13,200 rpm and 90 μL of supernatant was taken for LC/MS. The solvent system consisted of a linear gradient from 5% to 95% acetonitrile containing 0.1% formic acid over 16 min (0.2 mL/min flow). Mass spectra was acquired on a mass spectrometer (Waters 2695+micromass ZQ; Waters) using electrospray (+) ionization, mass ranging from 100 to 1500 Da, 40-V cone voltage.
as §1

[5] = intraperitoneal, subcutaneous or oral, up to 100 mg/kg

## CC(=O)Nc1ccc(-c2csc(-c3c[nH]c4ccccc34)n2)cc1 [UTA1inh-E02, N-(4-(2-(1H-indol-3-yl)thiazol-4-yl)phenyl)acetamide]
[1]
  metabolism: ~50%
[2]; in words, vehicle selection
  solubility: limited solubility
[2]; read-out: solubility limit
  solubility: ~25 µM (≈ 8.34 µg/mL)
[3]
  inhibition of transepithelial urea transport: ~50%
[4]; intravenous 20 mg/kg
  half-life: ~4.5 h
  plasma level initially: ~6 µM
  urine level initially: ~3 µM
[4]; [5]
  plasma concentration: < 1 µM
  urine concentration: < 1 µM

## COc1ccc(C)cc1S(=O)(=O)Nc1ccc(Cl)c(N2CCCS2(=O)=O)c1 [UTA1inh-F11, N-[4-Chloro-3-(1,1-dioxido-1,2-thiazolidin-2-yl)phenyl]-2-methoxy-5-methylbenzene-sulfonamide]
[1]
  metabolism: ~50%
[2]; in words, vehicle selection
  solubility: dissolved well in 20% dimethylacetamide, 0.6 mg/mL NaOH in saline
[2]; read-out: solubility limit
  solubility: ~25 µM (≈ 10.8 µg/mL)
[3]
  inhibition of transepithelial urea transport: ~50%
[4]; intravenous 20 mg/kg
  half-life: ~1 h
  plasma level initially: higher initial plasma levels than UTAinh-E02
  urine levels over 6 h: > 3 µM
